Results: PubChem BioAssay (NCI)
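At the GI50, growth is halved. TGI denotes the concentration required for complete inhibition of growth.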

What was measured:
Assay in all cases: growth of human tumour cells (NCI), 384-well format
[1] = tested on: MDA-MB-231 breast
[2] = tested on: SN12C renal
[3] = tested on: EKVX NSCLC
[4] = tested on: MDA-MB-468 breast
[5] = tested on: OVCAR-3 ovarian
[6] = tested on: NCI/ADR-RES ovarian
[7] = tested on: TK-10 renal
[8] = tested on: COLO 205 colon
[9] = tested on: OVCAR-8 ovarian
[10] = tested on: SK-OV-3 ovarian
[11] = tested on: LOX IMVI melanoma
[12] = tested on: SF-268 CNS
[13] = tested on: SNB-75 CNS
[14] = tested on: MCF7 breast
[15] = tested on: MALME-3M melanoma
[16] = tested on: RXF 393 renal
[17] = tested on: HS 578T breast
[18] = tested on: CAKI-1 renal
[19] = tested on: DU-145 prostate
[20] = tested on: SF-539 CNS
[21] = tested on: M14 melanoma
[22] = tested on: HCT-116 colon
[23] = tested on: HL-60(TB) leukemia
[24] = tested on: HOP-62 NSCLC
[25] = tested on: T-47D breast
[26] = tested on: PC-3 prostate
[27] = tested on: A498 renal
[28] = tested on: NCI-H460 NSCLC

With NC(=O)/C(=C/n1cnc(-c2cc(C(F)(F)F)cc(C(F)(F)F)c2)n1)c1cncnc1 the GI50 [1] was 29.5 nM, the TGI [1] was 253 nM and the GI50 [2] was 598 nM. For the same compound, the TGI [2] was 2260 nM, the GI50 [3] was 591 nM and the TGI [3] was 4.14 µM. The GI50 [4] was 73 nM, the TGI [4] was 247 nM and the GI50 [5] was 28 nM. The TGI [5] was 171 nM, the GI50 [6] was 222 nM and the TGI [6] was 1680 nM. For the same compound, the GI50 [7] was 47.5 nM, the TGI [7] was 1350 nM and the GI50 [8] was 44.1 nM. It also gave a TGI [8] of 1740 nM, a GI50 [9] of 37.8 nM and a TGI [9] of 1050 nM. For the same compound, the GI50 [10] was 92.2 nM, the TGI [10] was 8.97 µM and the GI50 [11] was 144 nM. For the same compound, the TGI [11] was 687 nM, the GI50 [12] was 26.7 nM and the TGI [12] was 95.3 nM. It also gave a GI50 [13] of 15.4 nM, a TGI [13] of 41.9 nM and a GI50 [14] of 47.8 nM. It also gave a TGI [14] of 10.9 µM, a GI50 [15] of 32.2 nM and a TGI [15] of 483 nM. The GI50 [16] was 24.4 nM, the TGI [16] was 116 nM and the GI50 [17] was 33 nM. The TGI [17] was 244 nM, the GI50 [18] was 22 nM and the TGI [18] was 1340 nM. For the same compound, the GI50 [19] was 235 nM, the TGI [19] was 3.94 µM and the GI50 [20] was 27.5 nM. The TGI [20] was 84 nM, the GI50 [21] was 146 nM and the TGI [21] was 485 nM. It also gave a GI50 [22] of 40.1 nM, a TGI [22] of 232 nM and a GI50 [23] of 15.3 nM. For the same compound, the TGI [23] was 131 nM, the GI50 [24] was 229 nM and the TGI [24] was 995 nM. For the same compound, the GI50 [25] was 192 nM, the TGI [25] was 1580 nM and the GI50 [26] was 26.1 nM. For the same compound, the TGI [26] was 110 nM, the GI50 [27] was 42 nM and the TGI [27] was 232 nM. It also gave a GI50 [28] of 29.6 nM and a TGI [28] of 131 nM.
